The values below come from paper PMC10303271, “Synthesis and Receptor Binding Studies of α5 GABAAR Selective Novel Imidazodiazepines Targeted for Psychiatric and Cognitive Disorders” (Molecules, 2023).

The Ki is a dissociation constant, usually derived from enzyme kinetics or from competition with a known ligand.

Like-named read-outs stand apart in the source and are kept apart here.

One test addresses T1, D1 (Homo sapiens, UniProt P21728).
T1 construct: purchased NIMH Psychoactive Drug Screening Program (PDSP)
As to the kind of experiment: PDSP primary binding D1. The note with it: 1.5 h; primary binding, 10,000 nM; last figure of the line = mean of the 4 before it; read-out: D1, PDSP raw data, mean. How it is done: (§1) To determine if any off-target receptor-binding effects are present, all the novel ligands were sent to the National Institute of Mental Health (NIMH), Psychoactive Drug Screening Program (PDSP). The ligands were screened over a panel of 47 receptors, ion channels, and transporters to determine any other possible interactions with […]. The hERG-binding was also determined. […] No binding of the test compounds to calcium channels was observed. […] It is necessary to screen the compounds for hERG-binding during the early process of drug discovery. The unintentional binding of many drugs to hERG can cause blockade of hERG K+ channels in the heart, which can cause many side effects including cardiac arrhythmias and sudden death. […] All of the α5 imidazodiazepines were tested for hERG-binding.
(§2) The NIMH PDSP assay protocol book [https://kidbdev.med.unc.edu/databases/PDSP%20Protocols%20II%202013-03-28.pdf accessed on 23 April 2023]. describes the protocols for primary and secondary radio-ligand binding assays. These assays were carried out in a final volume of 125 µL per well in the appropriate binding buffer.
(§3) The binding of a ligand to a receptor, ion channel, or transporter was determined in the […] of 10 µM of the appropriate reference compound. […] Plates were incubated in the dark for 90 min at rt, and the reactions were stopped by vacuum filtration onto 0.3% polyethyleneimine (PEI) soaked 96-well filter mats using a 96-well Filtermateharvester. This was followed by three washes with cold PBS buffer. Radioactivity was then counted on a Microbeta counter. Nonlinear regression was used to analyze the data with N = 6 replicates.

The target of test [1] is peripheral benzodiazepine receptors (PBR) (Rattus norvegicus, UniProt P16257). Description: PDSP radioligand binding at PBR.
From the text: The compounds were also screened at PDSP to determine any binding with peripheral benzodiazepine receptors (PBR). A number of biological processes are associated with PBR. The most prevalent are transportation of anions for mitochondrial transmembrane potential, biosynthesis of heme, regulation of neurological damage, proliferation, cell death (apoptosis), as well as regulation of steroidogenesis. The test compounds were screened in the primary binding assay to determine the % inhibition at PBR. […] These compounds were then subjected to a secondary screening to determine the Ki (nM) value for PBR receptors.
as §2, §3

Test [2] addresses kappa opioid receptors (KOR) (Homo sapiens, UniProt P41145). As to the kind of experiment: PDSP radioligand binding at KOR. The note with it: for inhibition at 10 µM: 1.5 h.
From the text: Opioid receptors are a family of inhibitory G-coupled protein receptors where opioids act as the ligand. The kappa opioid receptors (KOR), µ and δ opioid receptors (MOR and DOR), and nociception opioid receptor (NOP) fall under the family of opioids receptors. It has been reported that oxadiazole imidazodiazepines can mediate analgesic and anti-inflammatory properties mediated also by the κ opioid receptor (KOR). The binding at KOR is usually silent. The affinities of the test compounds for KOR, DOR, and MOR were determined using radioligand binding assays at a screening concentration of 10,000 nM in collaboration with the National Institute of Mental Health’s Psychoactive Drug Screening Program (PDSP), as mentioned before. Concentration-dependent experiments were conducted to determine Ki values for the compounds that exceeded more than 50% radioligand displacement in primary binding assays.
as §2, §3

The target of another test is T2, 5-HT1D (Homo sapiens, UniProt P28221).
T2 construct: purchased NIMH Psychoactive Drug Screening Program (PDSP)
Description: PDSP primary binding 5-HT1D. The note with it: 1.5 h; primary binding, 10,000 nM; last figure of the line = mean of the 4 before it; read-out: 5-HT1D, PDSP raw data, mean. How it is done:
as §1, §2, §3

The target in a further test is T3, Alpha2Beta4 (Rattus norvegicus, UniProt P12389+P12392).
T3 construct: purchased NIMH Psychoactive Drug Screening Program (PDSP)
Description: PDSP primary binding Alpha2Beta4. As to conditions: primary binding, 10,000 nM; last figure of the line = mean of the 4 before it; read-out: Alpha2Beta4, PDSP raw data, mean. How it is done: as §1, §2, §3

The target of the next test is T4, D4 (Homo sapiens, UniProt P21917).
T4 construct: purchased NIMH Psychoactive Drug Screening Program (PDSP)
T4 sequence (P21917 1-419): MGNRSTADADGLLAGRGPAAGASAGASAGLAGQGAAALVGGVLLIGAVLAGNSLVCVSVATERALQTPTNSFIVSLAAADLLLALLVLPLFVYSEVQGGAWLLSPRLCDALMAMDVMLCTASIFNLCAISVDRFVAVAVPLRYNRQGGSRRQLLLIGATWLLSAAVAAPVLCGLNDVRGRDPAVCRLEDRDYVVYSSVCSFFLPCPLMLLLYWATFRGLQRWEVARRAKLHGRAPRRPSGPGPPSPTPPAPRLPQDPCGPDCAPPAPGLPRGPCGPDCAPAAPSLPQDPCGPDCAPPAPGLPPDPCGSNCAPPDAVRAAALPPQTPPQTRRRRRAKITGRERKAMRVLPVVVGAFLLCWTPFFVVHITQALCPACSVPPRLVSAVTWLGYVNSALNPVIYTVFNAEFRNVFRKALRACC
Description: PDSP primary binding D4. As to conditions: 1.5 h; primary binding, 10,000 nM; last figure of the line = mean of the 4 before it; read-out: D4, PDSP raw data, mean. The protocol:
as §1, §2, §3

The target of another test is T5, V1A (Homo sapiens, UniProt P37288).
T5 construct: purchased NIMH Psychoactive Drug Screening Program (PDSP)
As to the kind of experiment: PDSP primary binding V1A. As to conditions: primary binding, 10,000 nM; last figure of the line = mean of the 4 before it; read-out: V1A, PDSP raw data, mean. How it is done: as §1, §2, §3

The test system of a further test is Ca channel human. Description: PDSP primary binding Ca channel. The note with it: primary binding, 10,000 nM; last figure of the line = mean of the 4 before it. The protocol: as §1, §2, §3
[3] abbreviates: 1.5 h, primary binding, 10,000 nM, last figure of the line = mean of the 4 before it, some tables list PBR twice, read-out: PBR, PDSP raw data, mean.
Setting [4] is: at 10,000 nM, N = 5, [3H]-U69593 0.83 nM, read-out: Primary Binding %KOR.
The mark [5] stands for this setting: primary binding, 10,000 nM, last figure of the line = mean of the 4 before it, read-out: KOR, PDSP raw data, mean.
Setting [6] is: at 10,000 nM, N = 5, read-out: Binding Affinity at PBR % Inhibition (Primary).

peripheral benzodiazepine receptors (PBR), sequence (P16257 whole entry): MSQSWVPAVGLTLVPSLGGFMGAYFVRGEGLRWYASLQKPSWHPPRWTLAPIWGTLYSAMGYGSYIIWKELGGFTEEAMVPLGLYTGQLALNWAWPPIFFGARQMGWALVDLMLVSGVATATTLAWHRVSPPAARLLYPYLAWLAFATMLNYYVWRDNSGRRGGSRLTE
T2 sequence (P28221 whole entry): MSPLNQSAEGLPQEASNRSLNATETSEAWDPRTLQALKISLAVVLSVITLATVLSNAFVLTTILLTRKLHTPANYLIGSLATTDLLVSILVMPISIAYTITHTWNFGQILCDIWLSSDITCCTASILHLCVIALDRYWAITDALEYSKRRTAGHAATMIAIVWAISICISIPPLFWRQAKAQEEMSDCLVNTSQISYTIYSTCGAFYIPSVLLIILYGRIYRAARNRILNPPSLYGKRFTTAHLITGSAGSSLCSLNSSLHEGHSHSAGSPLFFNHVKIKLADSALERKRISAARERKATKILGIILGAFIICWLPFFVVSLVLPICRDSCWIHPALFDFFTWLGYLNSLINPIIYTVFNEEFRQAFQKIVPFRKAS
T1 sequence (P21728 whole entry): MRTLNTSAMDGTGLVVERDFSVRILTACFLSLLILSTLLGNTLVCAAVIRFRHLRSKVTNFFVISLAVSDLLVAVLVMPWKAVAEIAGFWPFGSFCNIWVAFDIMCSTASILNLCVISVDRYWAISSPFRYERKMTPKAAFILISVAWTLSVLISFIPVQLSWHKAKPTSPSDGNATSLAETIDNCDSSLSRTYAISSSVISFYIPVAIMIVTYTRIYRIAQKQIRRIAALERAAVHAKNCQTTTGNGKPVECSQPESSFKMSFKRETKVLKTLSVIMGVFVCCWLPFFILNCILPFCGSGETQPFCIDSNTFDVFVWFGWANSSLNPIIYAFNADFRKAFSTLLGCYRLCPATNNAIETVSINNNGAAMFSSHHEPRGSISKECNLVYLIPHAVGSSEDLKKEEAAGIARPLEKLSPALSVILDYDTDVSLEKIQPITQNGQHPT
T3 sequence (P12389 28-511): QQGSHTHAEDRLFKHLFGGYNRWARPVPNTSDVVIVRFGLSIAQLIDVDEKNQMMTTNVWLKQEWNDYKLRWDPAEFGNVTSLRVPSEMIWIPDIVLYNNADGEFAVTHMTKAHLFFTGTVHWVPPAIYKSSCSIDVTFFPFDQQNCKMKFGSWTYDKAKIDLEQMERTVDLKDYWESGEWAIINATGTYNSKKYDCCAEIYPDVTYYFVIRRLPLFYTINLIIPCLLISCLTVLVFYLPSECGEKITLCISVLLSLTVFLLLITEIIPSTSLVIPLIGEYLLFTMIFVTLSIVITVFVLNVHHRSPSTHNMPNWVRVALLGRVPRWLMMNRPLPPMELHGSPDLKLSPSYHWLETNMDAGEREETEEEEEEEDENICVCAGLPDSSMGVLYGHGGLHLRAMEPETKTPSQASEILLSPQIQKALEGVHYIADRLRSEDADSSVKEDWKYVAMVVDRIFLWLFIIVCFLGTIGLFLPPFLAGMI
T3 sequence (P12392 21-495): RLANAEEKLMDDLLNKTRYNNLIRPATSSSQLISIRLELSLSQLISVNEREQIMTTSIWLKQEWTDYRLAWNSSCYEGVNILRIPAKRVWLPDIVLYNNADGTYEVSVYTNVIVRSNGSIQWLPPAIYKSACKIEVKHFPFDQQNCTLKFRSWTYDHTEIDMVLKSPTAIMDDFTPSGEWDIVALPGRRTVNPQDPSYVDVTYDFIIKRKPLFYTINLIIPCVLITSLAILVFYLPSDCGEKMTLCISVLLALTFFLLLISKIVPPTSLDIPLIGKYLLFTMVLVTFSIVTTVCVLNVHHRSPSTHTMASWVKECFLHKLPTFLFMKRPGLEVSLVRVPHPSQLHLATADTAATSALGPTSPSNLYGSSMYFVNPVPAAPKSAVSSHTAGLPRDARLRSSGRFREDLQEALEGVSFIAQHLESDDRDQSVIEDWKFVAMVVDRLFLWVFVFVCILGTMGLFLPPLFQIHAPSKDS
T5 sequence (P37288 whole entry): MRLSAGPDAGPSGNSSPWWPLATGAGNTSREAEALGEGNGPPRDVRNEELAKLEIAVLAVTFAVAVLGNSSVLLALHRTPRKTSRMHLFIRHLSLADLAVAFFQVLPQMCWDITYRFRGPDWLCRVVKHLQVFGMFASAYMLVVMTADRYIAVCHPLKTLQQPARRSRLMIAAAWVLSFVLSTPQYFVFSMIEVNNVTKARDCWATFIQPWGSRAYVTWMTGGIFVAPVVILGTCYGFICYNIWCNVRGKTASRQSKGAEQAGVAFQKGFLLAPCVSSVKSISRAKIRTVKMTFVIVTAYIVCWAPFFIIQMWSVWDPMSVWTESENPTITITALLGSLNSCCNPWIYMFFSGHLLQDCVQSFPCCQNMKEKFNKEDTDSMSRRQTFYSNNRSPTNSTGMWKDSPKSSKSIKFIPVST
kappa opioid receptors (KOR), sequence (P41145 whole entry): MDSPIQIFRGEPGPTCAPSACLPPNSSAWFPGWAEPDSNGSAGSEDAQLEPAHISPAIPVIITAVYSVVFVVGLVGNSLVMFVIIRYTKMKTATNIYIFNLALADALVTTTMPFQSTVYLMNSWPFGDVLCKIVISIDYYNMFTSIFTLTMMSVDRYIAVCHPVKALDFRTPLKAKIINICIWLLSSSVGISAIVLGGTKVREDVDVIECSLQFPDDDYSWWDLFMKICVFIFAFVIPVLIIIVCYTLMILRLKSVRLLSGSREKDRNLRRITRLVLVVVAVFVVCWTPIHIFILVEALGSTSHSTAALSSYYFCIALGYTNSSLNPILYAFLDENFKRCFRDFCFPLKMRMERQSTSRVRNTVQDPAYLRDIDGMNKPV

On to `C[C@H]1N=C(c2ccccc2F)c2cc(-c3ccccc3)ccc2-n2cnc(C(=O)N(C)C)c21` [Compound 5, (R)-6-(2′-Fluorophenyl)-N,N,4-trimethyl-8-phenyl-4H-benzo[f]imidazo[1,5-a][1,4]diazepine-3-carboxamide], for which the inhibition at 10 µM was -35.4% on D1; 22.3% in test [1] (setting [3]); 53.6 ± 7.24% in test [2] (setting [4]); 53.6% in test [2] (setting [5]); -3.41% at 5-HT1D; 4.82% on Alpha2Beta4. In addition, the inhibition at 10 µM at D4 was -4.45%; at V1A, 15.6%. For the same molecule, the Ki in test [2] (secondary screening, N = 2, read-out: KOR (Ki)) worked out at 2140 ± 311 nM. Also, the “Ca channel human, PDSP raw data, mean” value in the test with Ca channel human is reported as 39.05%.

`CC(C)c1noc(-c2ncn3c2[C@@H](C)N=C(c2ccccc2F)c2cc(Cl)ccc2-3)n1` [Compound 37, (R)-5-(8-Chloro-6-(2′-fluorophenyl)-4-methyl-4H-benzo[f]imidazo[1,5-a][1,4]diazepin-3-yl)-3-isopropyl-1,2,4-oxadiazole]: the inhibition at 10 µM was 27.4% on D1; 89.6% in test [1] (setting [3]); 88 ± 1.32% in test [1] (setting [6]); 99.2 ± 1.75% in test [2] (setting [4]); 99.2% in test [2] (setting [5]); 9.73% on 5-HT1D. Further, the inhibition at 10 µM on Alpha2Beta4 was -5.48%; on D4 it was -10.1%; at V1A, -10.1%. In addition, the Ki in test [1] was 838 ± 135 nM; in test [2], 46.3 ± 4.93 nM. The “Ca channel human, PDSP raw data, mean” value in the test with Ca channel human was found to be 7.04%.

For the molecule `CCc1noc(-c2ncn3c2[C@@H](C)N=C(c2ccccc2F)c2cc(Cl)ccc2-3)n1` [Compound 36, (R)-5-(8-Chloro-6-(2′-fluorophenyl)-4-methyl-4H-benzo[f]imidazo[1,5-a][1,4]diazepin-3-yl)-3-ethyl-1,2,4-oxadiazole], the inhibition at 10 µM on D1 was 42.8%; in test [1] (setting [3]), 57.2%; in test [1] (setting [6]) it was 57.2 ± 10.3%; in test [2] (setting [4]), 96.4 ± 3%; in test [2] (setting [5]), 96.4%; at 5-HT1D, -1.16%. Besides, the figures for the inhibition at 10 µM at Alpha2Beta4, on D4 and on V1A were 10.9%, -4.5% and 27.6%, respectively. Also, the Ki in test [1] came out at 982 ± 405 nM; in test [2] it was 104 ± 7.58 nM. In the test on Ca channel human, the “Ca channel human, PDSP raw data, mean” value is given as 16.74%.

Consider `CCc1noc(-c2ncn3c2CN=C(c2ccccc2F)c2cc(C4CC4)ccc2-3)n1` [Compound 44, 5-(8-Cyclopropyl-6-(2′-fluorophenyl)-4H-benzo[f]imidazo[1,5-a][1,4]diazepin-3-yl)-3-ethyl-1,2,4-oxadiazole], for which the inhibition at 10 µM on D1 is 49.6%; in test [1] (setting [3]) it was 71%; in test [2] (setting [4]), 96.3 ± 2.29%; in test [2] (setting [5]), 96.3%; at 5-HT1D, 67.4%; on Alpha2Beta4, 8.23%. Besides, the values for the inhibition at 10 µM on D4 and at V1A were -4.07% and 21.3%, respectively. This molecule also gave a Ki in test [2] of 207 ± 33.1 nM. Besides, the “Ca channel human, PDSP raw data, mean” value with Ca channel human stood at 36.68%.
